Source: ChEMBL document CHEMBL1141345, “Bacillamides from a hypersaline microbial mat bacterium” (J Nat Prod, 2007)
Active and inactive are the calls of the source.

Experiments:
Bacillus endophyticus = assay: Antimicrobial activity against Bacillus endophyticus SP31 isolate at <500 uM by broth dilution assay; assay type: functional; conditions: Priestia endophytica
Staphylococcus aureus [1] = assay: Growth inhibition of methicillin-resistant Staphylococcus aureus; assay type: functional, organism-based
Staphylococcus aureus [2] = assay: Reduction of alpha-toxin secretion in biofilm-forming methicillin-resistant Staphylococcus aureus at <150 uM; assay type: functional, organism-based

Measured: Activity

CC(=O)c1nc(C(=O)NCCc2c[nH]c3ccccc23)cs1
inactive: all assays above

CC(=O)N[C@H](C)c1nc(C(=O)NCCc2c[nH]c3ccccc23)cs1
inactive: all assays above

C[C@@H](O)c1nc(C(=O)NCCc2c[nH]c3ccccc23)cs1
inactive: all assays above
